Structures can show the parent of a compound that is named as a salt.

In one assay the target is T1, α1B adrenoceptor (Rattus norvegicus, UniProt P15823).
T1 construct: from tissue; host or cells: rat liver membranes
T1 sequence (P15823 1-515): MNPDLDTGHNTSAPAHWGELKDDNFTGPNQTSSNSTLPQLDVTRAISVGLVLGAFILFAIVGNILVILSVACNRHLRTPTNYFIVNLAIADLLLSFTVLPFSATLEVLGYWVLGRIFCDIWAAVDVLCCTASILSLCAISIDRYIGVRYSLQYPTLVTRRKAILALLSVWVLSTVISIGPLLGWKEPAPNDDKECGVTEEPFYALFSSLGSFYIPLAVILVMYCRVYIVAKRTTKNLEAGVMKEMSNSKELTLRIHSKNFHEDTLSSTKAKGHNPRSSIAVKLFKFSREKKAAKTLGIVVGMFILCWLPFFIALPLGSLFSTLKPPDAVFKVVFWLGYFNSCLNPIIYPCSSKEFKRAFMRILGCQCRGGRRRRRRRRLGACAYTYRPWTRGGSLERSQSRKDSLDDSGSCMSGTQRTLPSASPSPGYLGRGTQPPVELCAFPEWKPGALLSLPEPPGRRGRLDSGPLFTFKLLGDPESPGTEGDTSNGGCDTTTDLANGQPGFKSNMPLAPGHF
The assay is described as follows: Radioligand binding, [3H] prazosin displacement, rat liver membranes. The settings on record: read-out: Affinity (Ki) α1B (Rat Liver). The method in brief:
(§1)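 Displacement of [3H]prazosin measured by filtration and counting, with Ki from IC50 via Cheng–Prusoff and nonspecific binding set by 300 nM prazosin. Native rat submaxillary (α1A) or liver (α1B) membranes, 150-250 μg protein, 1 h at 24-25° C in Tris/EDTA pH 7.4.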

For the next assay, the target named is T2, α1A adrenoceptor (Rattus norvegicus, UniProt P43140).
T2 construct: from tissue; host or cells: rat submaxillary gland membranes
T2 sequence (P43140 1-466): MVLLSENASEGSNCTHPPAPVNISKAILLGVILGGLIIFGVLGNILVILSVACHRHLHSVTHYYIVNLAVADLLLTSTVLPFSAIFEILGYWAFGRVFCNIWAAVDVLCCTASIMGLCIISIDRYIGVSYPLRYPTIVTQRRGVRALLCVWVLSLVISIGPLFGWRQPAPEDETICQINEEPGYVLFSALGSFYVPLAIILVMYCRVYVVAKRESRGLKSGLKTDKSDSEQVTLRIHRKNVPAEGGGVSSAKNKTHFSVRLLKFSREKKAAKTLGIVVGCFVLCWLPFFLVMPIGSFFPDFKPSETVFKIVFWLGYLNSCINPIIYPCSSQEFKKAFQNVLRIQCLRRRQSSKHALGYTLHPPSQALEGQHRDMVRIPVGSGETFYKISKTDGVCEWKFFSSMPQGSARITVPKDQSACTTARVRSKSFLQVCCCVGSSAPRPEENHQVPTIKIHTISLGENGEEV
The assay is described as follows: Radioligand binding, [3H] prazosin displacement, rat submaxillary membranes. The settings on record: for Ki: [3H] prazosin displacement, rat submaxillary membranes, read-out: Affinity (Ki) α1A (Rat Submaxillary); for α1B/α1A: ratio of binding affinities, rat liver / rat submaxillary. The method in brief: as §1

For another assay, the target named is T3, α1D adrenoceptor (aorta) (Rattus norvegicus, UniProt P23944).
T3 construct: Isolated tissues were mounted in organ bath containing Krebs Henseleit buffer; from tissue; host or cells: isolated rat aorta
T3 sequence (P23944 1-561): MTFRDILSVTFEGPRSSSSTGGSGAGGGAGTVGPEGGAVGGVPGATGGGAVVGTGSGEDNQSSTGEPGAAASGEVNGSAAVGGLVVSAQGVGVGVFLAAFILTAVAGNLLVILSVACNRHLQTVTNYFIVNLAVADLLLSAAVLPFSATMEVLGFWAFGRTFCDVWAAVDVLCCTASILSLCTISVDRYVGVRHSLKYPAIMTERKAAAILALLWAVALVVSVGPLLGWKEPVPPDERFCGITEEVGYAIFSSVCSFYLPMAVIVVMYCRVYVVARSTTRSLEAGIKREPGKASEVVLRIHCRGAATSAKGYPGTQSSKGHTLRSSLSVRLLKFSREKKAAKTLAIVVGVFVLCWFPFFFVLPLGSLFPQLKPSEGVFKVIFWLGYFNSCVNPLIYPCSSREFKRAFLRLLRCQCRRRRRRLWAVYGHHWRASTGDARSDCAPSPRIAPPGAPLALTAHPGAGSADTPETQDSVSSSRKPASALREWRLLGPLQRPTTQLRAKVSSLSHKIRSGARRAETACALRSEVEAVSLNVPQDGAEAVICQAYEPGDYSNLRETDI
As to the kind of experiment: In vitro functional assay, isolated aorta, norepinephrine contraction. It is filed as cell-based. The settings on record: for Kb: read-out: α Adrenoceptor Subtype (pKB) α1D (converted). The text has this:
(§2) In order to study selectivity of action of these compounds towards different a-adrenoceptor subtypes, the ability of these compounds to antagonise (α1D) prostate (α1A) and spleen (α1B) was studied. Aorta and spleen tissues were isolated from urethane anaesthetized (1.5 g/kg) male wister rats. Isolated tissues were mounted in organ bath containing Krebs Henseleit buffer of the following composition (mM): NaCl 118; KCl 4.7; CaCl2 2.5; MgSO4 7H2O 1.2; NaHCO3 25; KH2PO4 1.2; glucose 11.5. Buffer was maintained at 37° C. and aereated with a mixture of 95% O2 and 5% CO2. A resting tension of 2 g (aorta) or 1 g (spleen and prostate) was applied to tissues. Contractile response was monitored using a force displacement transducer and recorded on chart recorders. Tissues were allowed to equilibrate for 2 hours. At the end of equilibration period, concentration response curves to norepinephrine (aorta) and phenylepinephrine (spleen and prostate) were obtained in the absence and presence of tested compound (at concentration of […]). Antagonist affinity was calculated and expressed as pKB values in Table II.

The target in assay [1] is T4, α1A adrenoceptor (prostate) (Rattus norvegicus, UniProt P43140).
T4 construct: from tissue; host or cells: isolated prostate tissue
T4 sequence (P43140 1-466): T2 sequence (P43140 1-466)
The assay is described as follows: In vitro functional assay, isolated prostate, phenylepinephrine contraction. The format is cell-based. The settings on record: for Kb: read-out: α Adrenoceptor Subtype (pKB) α1A (converted).
Text: as §2

Assay [2] concerns the target T5, α1B adrenoceptor (spleen) (Rattus norvegicus, UniProt P15823).
T5 construct: Isolated tissues were mounted in organ bath containing Krebs Henseleit buffer; from tissue; host or cells: isolated rat spleen
T5 sequence (P15823 1-515): T1 sequence (P15823 1-515)
As to the kind of experiment: In vitro functional assay, isolated spleen, phenylepinephrine contraction. It is filed as cell-based.
Text: as §2

Setting [3] is: rat prostate, phenylepinephrine.

For `O=C1C2CC3OC3CC2C(=O)N1CCCN1CCN(c2ccccc2OCC(F)(F)F)CC1` (stereo not drawn) [Compound No. 32, 2-[3-{4-(2-(2,2,2-Trifluoroethoxy)phenyl)piperazin-1-yl}propyl]-5,6-epoxy-3a,4,5,6,7,7a-hexahydro-1H-isoindole-1,3(2H)-dione], the Ki (in general, a dissociation constant, usually derived from enzyme kinetics or from competition with a known ligand) at α1B adrenoceptor was 51 nM; on α1A adrenoceptor, 0.18 nM. Further, the α1B/α1A on α1A adrenoceptor amounted to 283. For the same compound, the Kb at α1D adrenoceptor (aorta) is 15.8 nM; in assay [1] (setting [3]), 0.676 nM. Besides, in assay [1] (functional, from pKB), the “Selectivity α1D/α1A” value amounted to 23.
In the case of `CC(C)Oc1ccccc1N1CCN(CC(O)CN2C(=O)CCCC2=O)CC1.Cl` (stereo not drawn) [Compound No. 29, 1-[4-(2-Isopropoxyphenyl)piperazin-1-yl]-2-hydroxy-3-(2,6-dioxopiperidin-1-yl)propane hydrochloride], the Ki at α1B adrenoceptor was found to be 238 nM; on α1A adrenoceptor, 2.8 nM. Further, the α1B/α1A on α1A adrenoceptor is on record as 85. For the same compound, the Kb at α1D adrenoceptor (aorta) is 10.2 nM; in assay [1] (setting [3]), 0.229 nM. Further, the “Selectivity α1D/α1A” value in assay [1] (functional, from pKB) was 45.
Take `CC(C)Oc1cc(N)ccc1N1CCN(CCCN2C(=O)C3CC=CCC3C2=O)CC1.Cl` (stereo not drawn) [Compound No. 26, 2-[3-{4-(2-Isopropoxy-4-aminophenyl)piperazin-1-yl}propyl]-3a,4,7,7a-tetrahydro-1H-isoindole-1,3(2H)-dione hydrochloride]: the inhibition constant (Ki) at α1B adrenoceptor was found to be 2090 nM; on α1A adrenoceptor it was 8.83 nM. Also, the α1B/α1A on α1A adrenoceptor is recorded as 237. For the same compound, the Kb was 166 nM on α1D adrenoceptor (aorta) and 1.58 nM in assay [1] (setting [3]). The “Selectivity α1D/α1A” value in assay [1] (functional, from pKB) stood at 105.
For `O=C1C2CC3OC3CC2C(=O)N1CC(O)CN1CCN(c2ccccc2OCC(F)(F)F)CC1` (stereo not drawn) [Compound No. 34, 2-[3-{4-(2-(2,2,2-Trifluoroethoxy)phenyl)piperazin-1-yl}-2-hydroxypropyl]-5,6-epoxy-3a,4,5,7,7a-hexahydro-1H-isoindole-1,3(2H)-dione], the Ki at α1B adrenoceptor amounted to 311 nM; at α1A adrenoceptor, 1.95 nM. For the same compound, the α1B/α1A at α1A adrenoceptor is reported as 159. Moreover, the Kb on α1D adrenoceptor (aorta) is 19.1 nM; in assay [1] (setting [3]), 1.26 nM. Further, in assay [1] (functional, from pKB), the “Selectivity α1D/α1A” value was 15.
In the case of `CC(C)Oc1ccccc1N1CCN(CCCN2C(=O)C3CCCC(O)C3C2=O)CC1.Cl` (stereo not drawn) [Compound No. 60, 2-[3-{4-(2-Isopropoxyphenyl)piperazin-1-yl}-propyl]4-hydroxy-3a,4,5,6,7,7a-hexahydro-1H-isoindole-1,3(2H)-dione hydrochloride], the Ki was found to be 142 nM on α1B adrenoceptor and 1.2 nM at α1A adrenoceptor. On α1A adrenoceptor, the α1B/α1A turned out to be 118. The Kb on α1D adrenoceptor (aorta) is 6.46 nM; in assay [1] (setting [3]), 0.363 nM. The “Selectivity α1D/α1A” value in assay [1] (functional, from pKB) is on record as 18.
With `CC(=O)OC1C=CCC2C(=O)N(CCCN3CCN(c4ccccc4OC(C)C)CC3)C(=O)C12` (stereo not drawn) [Compound No. 40, 2-[3-{4-(2-Isopropoxyphenyl)piperazin-1-yllpropyl]4-acetoxy-3a,4,7,7a-tetrahydro-1H-isoindole-1,3(2H)-dione hydrochloride], the Ki on α1B adrenoceptor was 143 nM; at α1A adrenoceptor, 0.82 nM. Further, the α1B/α1A on α1A adrenoceptor is listed as 174. For the same compound, the values for the Kb (at α1D adrenoceptor (aorta); in assay [1] (setting [3])) were 1.51 nM and 0.339 nM, respectively. Moreover, the “Selectivity α1D/α1A” value in assay [1] (functional, from pKB) worked out at 4.5.
Take `CC(C)Oc1ccccc1N1CCN(CC(O)CN2C(=O)C3CC4OC4CC3C2=O)CC1` (stereo not drawn) [Compound No. 30, 2-[3-{4-(2-Isopropoxyphenyl)piperazin-1-yl}-2-hydroxypropyl]-5,6-epoxy-3a,4,5,6,7,7a-hexahydro-1H-isoindole-1,3(2H)-dione]: the values for the inhibitory constant (Ki) at α1B adrenoceptor and on α1A adrenoceptor were 393 nM and 1.7 nM, respectively. Also, on α1A adrenoceptor, the α1B/α1A came out at 231. Further, the Kb on α1D adrenoceptor (aorta) is 8.71 nM; in assay [1] (setting [3]) it was 1.66 nM. The “Selectivity α1D/α1A” value in assay [1] (functional, from pKB) turned out to be 5.2.
Turning to `CCOc1ccccc1N1CCN(CCCN2C(=O)C3CC(O)C(Cl)CC3C2=O)CC1.Cl` (stereo not drawn) [Compound No. 17], on α1A adrenoceptor, the α1B/α1A was determined as 50. Also, the “α Adrenoceptor Subtype (pKB) α1D” value on α1D adrenoceptor (aorta) worked out at 9.07. Besides, in assay [1] (functional, from pKB), the “Selectivity α1B/α1A” value is reported as 347 and the “Selectivity α1D/α1A” value came out at 3.9. Moreover, the “α Adrenoceptor Subtype (pKB) α1A” value in assay [1] (setting [3]) stood at 9.54. For the same compound, the “α Adrenoceptor Subtype (pKB) α1B” value in assay [2] is 7.
As for `O=C1C2CC=CCC2C(=O)N1CC(O)CN1CCN(c2ccccc2OCC(F)(F)F)CC1` (stereo not drawn) [Compound No. 31, 2-[3-{4-(2-(2,2,2-Trifluoroethoxyphenyl)piperazin-1-yl}-2-hydroxypropyl]-3a,4,7,7a-tetrahydro-1H-isoindole-1,3(2H)-dione hydrochloride], the inhibition constant Ki on α1B adrenoceptor amounted to 91 nM; on α1A adrenoceptor, 2.3 nM. Also, the α1B/α1A at α1A adrenoceptor is reported as 40. The Kb at α1D adrenoceptor (aorta) is 4.79 nM; in assay [1] (setting [3]), 1.45 nM. Also, the “Selectivity α1D/α1A” value in assay [1] (functional, from pKB) turned out to be 3.3.
Regarding `COc1ccccc1N1CCN(CC(O)CN2C(=O)C3CC=CCC3C2=O)CC1.Cl` (stereo not drawn) [compound 06, 2-[3-{4-(2-Methoxyphenyl)piperazin-1-yl}-2-hydroxypropyl]-3a,4,7,7a-tetrahydro-1H-isoindole-1,3(2H)-dione hydrochloride], the Ki came out at 263 nM at α1B adrenoceptor and 38 nM at α1A adrenoceptor. Also, on α1A adrenoceptor, the α1B/α1A amounted to 7. In addition, the Kb is 3.72 nM on α1D adrenoceptor (aorta) and 6.61 nM in assay [1] (setting [3]). Further, in assay [1] (functional, from pKB), the “Selectivity α1D/α1A” value was determined as 0.56.
In the case of `CCOc1ccccc1N1CCN(CCCN2C(=O)C3CCC(O)CC3C2=O)CC1.Cl` (stereo not drawn) [Compound No. 18, 2-[3-{4-(2-Ethoxyphenyl)piperazin-1-yl}propyl]-5-hydroxy-3a,4,5,6,7,7a-hexahydro-1H-isoindole-1,3(2H)-dione hydrochloride], the values for the Ki at α1B adrenoceptor and at α1A adrenoceptor were 97 nM and 1.5 nM, respectively. For the same compound, on α1A adrenoceptor, the α1B/α1A is listed as 65. Also, the Kb was 0.575 nM at α1D adrenoceptor (aorta) and 0.427 nM in assay [1] (setting [3]). In assay [1] (functional, from pKB), the “Selectivity α1D/α1A” value was 1.3.

Values taken from patent US20050228180A1, “Alpha, omega-dicarboximide derivatives as useful uro-selective a1a adrenoceptor blockers” (priority 2002, published 2005).
